In one assay the test system is KB cells. Briefly: In vitro activity in KB cells (3H-thymidine incorporation). The conditions noted are these: 3H-thymidine incorporation relative to untreated controls. The assay is classed as cell-based. On the procedure: Cells were seeded in 24-well Falcon plates and allowed to form nearly confluent monolayers overnight. After one rinse with 1 mL of fresh FFRPMI/HIFCS, each well received 1 mL, of medium containing increasing concentrations of test agent (3 wells per sample). Cells were pulsed with targeted agents for 2 hr at 37° C., rinsed 4 times with 0.5 mL of medium, and then chased in 1 mL of fresh medium up to 70 hr. Cells were treated with non-targeted agent EC0347 for a continuous 72 h. Spent medium was aspirated from all wells and replaced with fresh medium containing 5 μCi/mL ^3H-thymidine. After a further 2 hr 37° C. incubation, cells were washed 3 times with 0.5 mL of PBS and then treated with 0.5 mL of ice-cold […] per well. After 15 min, the trichloroacetic acid was aspirated and the cell material solubilized by the addition of 0.5 mL of 0.25 N sodium hydroxide for 15 min. Four hundred and fifty microliters of each solubilized sample were transferred to scintillation vials containing 3 mL of Ecolume scintillation cocktail and then counted in a liquid scintillation counter. Final tabulated results were expressed as the percentage of ^3H-thymidine incorporation relative to untreated controls and IC50 values calculated using Graphpad Prism software.
(Uptake of a labelled nucleoside into DNA is a usual measure of proliferation.)

Another assay concerns subcutaneous KB tumors. Description: Antitumor activity in KB tumor model. Type of assay: in vivo, Female Balb/c nu/nu mice. The conditions noted are these: FIG. 1; 2 μmol/kg, single-dose; n=5; mice with subcutaneous KB tumors. As to the method: Female Balb/c nu/nu mice were fed ad libitum with folate-deficient chow (Harlan diet #TD01013) for the duration of the experiment. KB tumor cells were inoculated subcutaneously at the right flank of each mouse. Mice were dosed after the tumors have reached a range of 107-152 mm^3 through the lateral tail vein under sterile conditions in a volume of 200 μL of phosphate-buffered saline (PBS).
Growth of each s.c. tumor was followed by measuring the tumor two times per week. Tumors were measured in two perpendicular directions using Vernier calipers, and their volumes were calculated as 0.5×L×W^2, where L=measurement of longest axis in mm and W=measurement of axis perpendicular to L in mm.

Data on two compounds can be found in patent US20180110871A1, “DUAL DISULFIDE DRUG CONJUGATES” (ENDOCYTE, INC., priority 2015, published 2018).

`CCCC(=O)OCN(C(=O)[C@@H](NC(=O)[C@H]1CCCCN1C)C(C)CC)[C@H](C[C@@H](OC(C)=O)c1nc(C(=O)N[C@@H](Cc2ccc(O)cc2)C[C@H](C)C(=O)NN)cs1)C(C)C` (stereo partly drawn) [EC0347, Tubulysin B Hydrazide, reference compound]: in the assay on KB cells (Homo sapiens, non-targeted agent, continuous 72 h), the IC50 (usually the midpoint of a concentration-inhibition curve) came to 1.5 nM.
Consider `C#CCN(Cc1ccc2nc(N)[nH]c(=O)c2c1)c1ccc(C(=O)N[C@@H](CCC(=O)OCCSSC[C@H](NC(=O)[C@H](CCC(=O)NC[C@H](O)[C@@H](O)[C@H](O)[C@H](O)CO)NC(=O)[C@H](CCC(=O)O)NC(=O)[C@H](CCC(=O)NC[C@H](O)[C@@H](O)[C@H](O)[C@H](O)CO)NC(=O)[C@H](CCC(=O)O)NC(=O)[C@H](CCC(=O)NC[C@H](O)[C@@H](O)[C@H](O)[C@H](O)CO)NC(=O)CCSSCCOC(=O)NNC(=O)[C@@H](C)C[C@H](Cc2ccc(O)cc2)NC(=O)c2csc([C@@H](C[C@H](C(C)C)N(COC(=O)CCC)C(=O)[C@@H](NC(=O)[C@H]3CCCCN3C)C(C)CC)OC(C)=O)n2)C(=O)O)C(=O)O)cc1` (stereo partly drawn) [EC2133], for which the IC50 in the assay with KB cells (targeted agents pulsed 2 hr at 37° C., chased up to 70 hr) came out at 0.8 nM. In addition, in the assay with subcutaneous KB tumors, the “cure (number of mice)” value was 1.
